Reference: ChEMBL document CHEMBL1201862, “PubChem BioAssay data set” (2004)
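Test compounds were applied to cells in 96-well plates for 48 hours at 5 doses. GI50: concentration for 50% inhibition of growth.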 Activity calls are given as the source filed them. Rule as the data show it: active = GI50 up to about 1.1 µM and inactive = higher.

Key:
Test in all cases: NCI-60 cell line screen, 48 h
[1] = test system: LOX IMVI
[2] = test system: NCI-H460
[3] = test system: Malme-3M
[4] = test system: A498
[5] = test system: KM-20L2
[6] = test system: RXF 631
[7] = test system: SNB-19
[8] = test system: SF-539
[9] = test system: HCT-116
[10] = test system: A549
[11] = test system: K562
[12] = test system: SNB-75
[13] = test system: NCI-H226
[14] = test system: SF-268
[15] = test system: HOP-18
[16] = test system: SW-620
[17] = test system: HCC 2998
[18] = test system: UO-31
[19] = test system: HL-60
[20] = test system: HT-29
[21] = test system: UACC-257
[22] = test system: 786-0
[23] = test system: HCT-15
[24] = test system: OVCAR-3
[25] = test system: LXFL 529
[26] = test system: KM12
[27] = test system: MOLT-4
[28] = test system: DMS-273
[29] = test system: CAKI-1
[30] = test system: XF498
[31] = test system: DMS-114
[32] = test system: U-251
[33] = test system: IGROV-1
[34] = test system: M19-MEL
[35] = test system: SR
[36] = test system: HOP-92
[37] = test system: SN12C
[38] = test system: UACC-62
[39] = test system: OVCAR-8
[40] = test system: SF-295
[41] = test system: ACHN
[42] = test system: TK-10
[43] = test system: SK-OV-3
[44] = test system: OVCAR-5
[45] = test system: M14
[46] = test system: COLO 205
[47] = test system: HOP-62
[48] = test system: NCI-H522
[49] = test system: NCI-H23
[50] = test system: RPMI-8226
[51] = test system: SK-MEL-2
[52] = test system: OVCAR-4
[53] = test system: SK-MEL-5
[54] = test system: SK-MEL-28
[55] = test system: DLD-1
[56] = test system: CCRF-CEM

CC1=C2CCCC2C/C(=N/Nc2ccc([N+](=O)[O-])cc2[N+](=O)[O-])CC1 (stereo not drawn)
GI50 [1]: > 100 µM (inactive)
GI50 [2]: > 100 µM (inactive)
GI50 [3]: > 100 µM (inactive)
GI50 [4]: > 100 µM (inactive)
GI50 [5]: > 100 µM (inactive)
GI50 [6]: > 100 µM (inactive)
GI50 [7]: > 100 µM (inactive)
GI50 [8]: > 100 µM (inactive)
GI50 [9]: > 100 µM (inactive)
GI50 [10]: > 100 µM (inactive)
GI50 [11]: > 100 µM (inactive)
GI50 [12]: 69.7 µM (inactive)
GI50 [13]: > 100 µM (inactive)
GI50 [14]: > 100 µM (inactive)
GI50 [15]: > 100 µM (inactive)
GI50 [16]: > 100 µM (inactive)
GI50 [17]: > 100 µM (inactive)
GI50 [18]: > 100 µM (inactive)
GI50 [19]: 11.1 µM (inactive)
GI50 [20]: > 100 µM (inactive)
GI50 [21]: > 100 µM (inactive)
GI50 [22]: > 100 µM (inactive)
GI50 [23]: > 100 µM
GI50 [24]: > 100 µM (inactive)
GI50 [25]: > 100 µM (inactive)
GI50 [26]: > 100 µM (inactive)
GI50 [27]: > 100 µM (inactive)
GI50 [28]: > 100 µM (inactive)
GI50 [29]: > 100 µM (inactive)
GI50 [30]: > 100 µM (inactive)
GI50 [31]: > 100 µM (inactive)
GI50 [32]: > 100 µM (inactive)
GI50 [33]: > 100 µM (inactive)
GI50 [34]: > 100 µM (inactive)
GI50 [35]: > 100 µM (inactive)
GI50 [36]: > 100 µM (inactive)
GI50 [37]: > 100 µM (inactive)
GI50 [38]: > 100 µM (inactive)
GI50 [39]: > 100 µM (inactive)
GI50 [40]: > 100 µM (inactive)
GI50 [41]: > 100 µM (inactive)
GI50 [42]: > 100 µM (inactive)
GI50 [43]: > 100 µM (inactive)
GI50 [44]: > 100 µM (inactive)
GI50 [45]: > 100 µM (inactive)
GI50 [46]: > 100 µM (inactive)
GI50 [47]: > 100 µM (inactive)
GI50 [48]: > 100 µM (inactive)
GI50 [49]: > 100 µM (inactive)
GI50 [50]: > 100 µM (inactive)
GI50 [51]: > 100 µM (inactive)
GI50 [52]: > 100 µM (inactive)
GI50 [53]: > 100 µM (inactive)
GI50 [54]: > 100 µM (inactive)

C[C@]12CCC[C@H](O)[C@H]1C[C@H](CO)CC2
GI50 [1]: > 100 µM (inactive)
GI50 [2]: > 100 µM (inactive)
GI50 [3]: > 100 µM (inactive)
GI50 [4]: > 100 µM (inactive)
GI50 [5]: > 100 µM (inactive)
GI50 [6]: > 100 µM (inactive)
GI50 [7]: > 100 µM (inactive)
GI50 [8]: > 100 µM (inactive)
GI50 [55]: > 100 µM (inactive)
GI50 [9]: > 100 µM (inactive)
GI50 [10]: > 100 µM (inactive)
GI50 [11]: > 100 µM (inactive)
GI50 [12]: > 100 µM (inactive)
GI50 [13]: > 100 µM (inactive)
GI50 [14]: > 100 µM (inactive)
GI50 [15]: > 100 µM (inactive)
GI50 [16]: > 100 µM (inactive)
GI50 [17]: > 100 µM (inactive)
GI50 [18]: > 100 µM (inactive)
GI50 [19]: > 100 µM (inactive)
GI50 [20]: > 100 µM (inactive)
GI50 [21]: > 100 µM (inactive)
GI50 [22]: > 100 µM (inactive)
GI50 [23]: > 100 µM
GI50 [24]: > 100 µM (inactive)
GI50 [25]: > 100 µM (inactive)
GI50 [26]: > 100 µM (inactive)
GI50 [27]: > 100 µM (inactive)
GI50 [28]: > 100 µM (inactive)
GI50 [29]: > 100 µM (inactive)
GI50 [30]: > 100 µM (inactive)
GI50 [32]: > 100 µM (inactive)
GI50 [56]: > 100 µM (inactive)
GI50 [33]: > 100 µM (inactive)
GI50 [34]: > 100 µM (inactive)
GI50 [35]: > 100 µM (inactive)
GI50 [36]: > 100 µM (inactive)
GI50 [37]: > 100 µM (inactive)
GI50 [38]: > 100 µM (inactive)
GI50 [39]: > 100 µM (inactive)
GI50 [40]: > 100 µM (inactive)
GI50 [41]: > 100 µM (inactive)
GI50 [42]: > 100 µM (inactive)
GI50 [43]: > 100 µM (inactive)
GI50 [44]: > 100 µM (inactive)
GI50 [45]: > 100 µM (inactive)
GI50 [46]: > 100 µM (inactive)
GI50 [47]: > 100 µM (inactive)
GI50 [48]: > 100 µM (inactive)
GI50 [49]: > 100 µM (inactive)
GI50 [50]: > 100 µM (inactive)
GI50 [51]: > 100 µM (inactive)
GI50 [52]: > 100 µM (inactive)
GI50 [54]: > 100 µM (inactive)
